Where “and” joins values, the source holds several entries; their conditions need not be identical. Equal entries are not always repeated. Where two headings read alike, the source gives them in different places.
Key:
[1] = molecular target: rat anti-2,4-dinitrophenyl IgG (IgG^DNP, clone LO-DNP-2); test: Monovalent dissociation constant of hapten for anti-2,4-DNP IgG, method not given; type: binding; settings: read-out: monovalent Kd (Kd^affinity) of hapten for IgG^DNP
[2] = tested on: anti-2,4-DNP IgG (clone LO-DNP-2); test: SE-HPLC of formation and dissociation of cyclic IgG aggregates; type: biochemical, rat; settings: for dissociation of IgG aggregates by excess monovalent hapten: about 1 mM monovalent hapten, SE-HPLC
Method: We used size-exclusion chromatography (SE-HPLC) to follow the purification process. This analytical technique has the advantage that we can resolve monomeric, dimeric, trimeric, and tetrameric antibody aggregates on the column. It has the disadvantage that these aggregates must be kinetically stable (in the absence of competing monovalent hapten) over the time required to carry out a separation (retention time, tr˜15 min).
Validation of Size-Exclusion Chromatography (SE-HPLC) to Examine Aggregates of IgG. Size-exclusion chromatography (SE-HPLC) can resolve the cyclic aggregates of antibodies from each other and from monomeric IgG (FIG. 6). The commercially available purified IgG gave predominantly one peak by SE-HPLC (FIG. 6a) at a retention time (˜15.6 min) consistent with the size of monomeric IgG (˜150 kDa) based on a molecular weight calibration plot (FIG. 3). We formed aggregates in >90% conversion by incubating IgG (2 μM) with 5-10 equivalents of bi and trivalent molecules in chart 1 for 12 hours. […] These antibody aggregates dissociated rapidly (<1 min) in the presence of excess monovalent hapten (6) (1 μM anti-2,4-DNP; 1 μM 1; 1000 μM 6) (FIG. 6c).

[3] = molecular target: IgG from clone (LO-DNP-2), anti-DNP; test: Fluorescence titration (tryptophan quenching) for the monovalent dissociation constant; type: binding, rat; settings: read-out: monovalent dissociation constant (Kd^affinity)
Method: Determination of dissociation constant of antibody and 2,4-DNP. The binding of DNP derivatives to anti-DNP quenches the fluorescence of tryptophan residues of the antibody. We conducted a fluorescence titration to determine the monovalent dissociation constant (Kd^affinity) of the IgG from clone (LO-DNP-2) for Ac2DNP-Lys, and obtained a value of 0.40±0.08 nM.

| Compound | Kd [1] | dissociation of IgG aggregates by excess monovalent hapten [2] | also measured |
| --- | --- | --- | --- |
| 2,4-dinitrophenyl [2,4-DNP] | – | – | Kd ([1]; listed as DNP): 8 nM and ~8 nM |
| 4-nitrophenyl [4-NP] | 500 nM and ~500 nM | – | – |
| NCCCC[C@H](Nc1ccc([N+](=O)[O-])cc1[N+](=O)[O-])C(=O)O [compound 6, 2,4-dinitrophenyl lysine] | – | completely dissociated | time for dissociation of antibody aggregates by excess monovalent hapten ([2]; 1 μM anti-2,4-DNP, 1 μM 1, 1000 μM 6): < 1 min |
| O=[N+]([O-])c1ccc(OC2O[C@H](CO)[C@@H](O)[C@H](O)[C@H]2O)cc1 (stereo partly shown) [compound 7, 4-nitrophenylglucose] | ~500 nM | completely dissociated | – |
| Ac2DNP-Lys | – | – | Kd [3]: 0.4 ± 0.08 nM |

Source: US8124743B2, “Purification of a bivalently active antibody using a non-chromatographic method” (President and Fellows of Harvard College, priority 2006, dated 2012)
